Measurements reported in PubChem BioAssay AID1918941 (Molecular Pharmacology Branch, DTP, NCI, 2023).

Test system: SW 1271 complex spheroids, viability
Experiment: Anticancer human tumor SW 1271 cell line growth inhibition [LSD1];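 also: spheroids exposed to agents for 7 days before luminescence read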;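 as to viability, T/C: 100% = DMSO vehicle control viability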
Conditions: for IC50: curve of first compound; for viability, T/C: stronger effect = lower value
Text: Multicellular complex tumor spheroid response to LSD1 Inhibitor Iadademstat in combination with a variety of drugs and investigational agents in selected tumor cell lines
The current study was undertaken to assess response to LSD1 inhibitors in combination with standard-of-care drugs and investigational agents in solid tumor complex spheroid models as well as in the K-562 leukemia. Complex spheroids include a stromal component modeled by human endothelial cells (HUVEC) and fibroblasts modeled by human mesenchymal stem cells (MSCs). The concentration ranges selected for each drug and investigational agent were based upon clinically achievable concentrations if the clinical Cmax of the agent was known.
Compounds. The drugs and investigational agents used in this study are listed on Table 1. All of the agents used, including staurosporine (NSC755774) and gemcitabine (NSC613327), were obtained from the Developmental Therapeutics Program, NCI. FDA-approved anticancer drugs are available from the NCI at http://dtp.nci.nih.gov/branches/dscb/oncology_drugset_explanation.html. Drugs and investigational agents were >95% pure by proton nuclear magnetic resonance (NMR) and liquid chromatography/mass spectrometry (LC/MS). Stock solutions were prepared at 400x in DMSO, stored at -70 degrees C, and diluted in fresh medium prior to their use. The final concentration of DMSO in cell culture wells never exceeded 0.25% (v/v). The FDA-approved anticancer drug set is available from the Developmental Therapeutics Program at https://dtp.cancer.gov/organization/dscb/obtaining/available_plates.htm. All drugs and investigational agents were tested over a range starting from a high concentration at or near the clinical Cmax and decreasing in half-log increments. If the clinical Cmax for an agent had not been determined, the highest concentration tested was 10 microM.
Cell Lines. The patient-derived cancer cell (PDC) lines: 292921-168-R-J2-PDC, K24384-001-R-PDC, and 521955-158-R2-J5-PDC pancreatic carcinomas, 556581-035-R-J1 ovarian carcinoma, 324938-238-R-J1-PDC, 855422-203-R-J1-PDC and 883617-216-R-J1-PDC urothelial bladder carcinomas, 743489-274-T-PDC renal cell carcinoma, 138582-R-J1 Merkel cell tumor, K60290-347-R-J1 and K57222-313-R-J1-PDC glioblastomas, 653999-131-R-J2-PDC, LG0703-F948-PDC, and 349418-098-R-PDC non-small cell lung carcinomas, 885512-296-R-J2-PDC, 171881-019-R-J1-PDC breast carcinomas and 186277-243-T-J2-PDC and 233499-124-R-J2-PDC colon carcinomas were obtained from the NCI Patient-Derived Models Repository (PDMR, https://pdmr.cancer.gov). The established cell lines NCI/ADR-RES (RRID:CVCL_14520 and OVCAR-5 (RRID:CVCL_1628) ovarian carcinomas, 786-O (RRID:CVCL_1051) and A498 (RRID:CVCL_A498) renal cell carcinoma, NCI-H211 (ATCC, cat. CRL-5824; RRID:CVCL_1529), NCI-H196 (ATCC, cat. CRL-5823, RRID:CVCL_1509), SW 1271 (ATCC, cat. CRL-2177, RRID:CVCL_1716) and NCI-H1876 (ATCC, cat. CRL-5902, RRID:CVCL_1503) small cell lung carcinomas, MDA-MB-231 (RRID:CVCL_0062) and MDA-MB-468 (RRID:CVCL_0419)breast carcinomas (10-12). Pooled donor human umbilical vein endothelial cells (HUVEC, Lonza, cat. CC-2519) and human mesenchymal stem cells (hMSC, Lonza, cat. PT-2501) were purchased from Lonza (Walkersville, MD).
Cell Culture. All cells were maintained in an incubator at 37 degrees C and 5% CO2 with 95% humidity. The PDC lines were cultured according to standard operating procedures established by the NCI PDMR (https://pdmr.cancer.gov). Briefly all PDCs were thawed and cultured in Matrigel-coated flasks prepared with a working solution of 1X Ham's F-12 nutrient mix, without supplementation (Invitrogen, Waltham, MA, cat. 11765054), 100 U/mL penicillin-streptomycin (Invitrogen, cat. 15140122), and 2.5% Matrigel (Corning Inc., Corning, NY, cat. 354248) for the first three passages. […]

COc1cc(C2c3cc4c(cc3C(OC3OC5COC(C)OC5C(O)C3O)C3COC(=O)C23)OCO4)cc(OC)c1O (stereo not given) + NC1CC1c1ccc(-c2cccc(O)c2)cc1 gave an IC50 (second compound 0.1 µM) of 1.39 µM, an IC50 (second compound 0.316 µM) of over 3 µM and an IC50 (second compound 1 µM) of 0.582 µM. It also gave an IC50 (second compound 3.16 µM) of over 3 µM, an IC50 (second compound 10 µM) of 0.289 µM and a viability, T/C (second compound 0.1 µM, first compound 0.00949 µM) of 84.4%. The viability, T/C (second compound 0.1 µM, first compound 0.03 µM) was 68.3%, the viability, T/C (second compound 0.1 µM, first compound 0.0949 µM) was 63.8% and the viability, T/C (second compound 0.1 µM, first compound 0.3 µM) was 53.7%. The viability, T/C (second compound 0.1 µM, first compound 0.949 µM) was 56.7%, the viability, T/C (second compound 0.1 µM, first compound 3 µM) was 44.4% and the viability, T/C (second compound 0.316 µM, first compound 0.00949 µM) was 70.7%. It also gave a viability, T/C (second compound 0.316 µM, first compound 0.03 µM) of 58.9%, a viability, T/C (second compound 0.316 µM, first compound 0.0949 µM) of 67.7% and a viability, T/C (second compound 0.316 µM, first compound 0.3 µM) of 52.8%. It also gave a viability, T/C (second compound 0.316 µM, first compound 0.949 µM) of 49.9%, a viability, T/C (second compound 0.316 µM, first compound 3 µM) of 54% and a viability, T/C (second compound 1 µM, first compound 0.00949 µM) of 79.2%. It also gave a viability, T/C (second compound 1 µM, first compound 0.03 µM) of 67.9%, a viability, T/C (second compound 1 µM, first compound 0.0949 µM) of 62.9% and a viability, T/C (second compound 1 µM, first compound 0.3 µM) of 57.1%. The viability, T/C (second compound 1 µM, first compound 0.949 µM) was 45.8%, the viability, T/C (second compound 1 µM, first compound 3 µM) was 38% and the viability, T/C (second compound 3.16 µM, first compound 0.00949 µM) was 64.9%. The viability, T/C (second compound 3.16 µM, first compound 0.03 µM) was 55.2%, the viability, T/C (second compound 3.16 µM, first compound 0.0949 µM) was 61.3% and the viability, T/C (second compound 3.16 µM, first compound 0.3 µM) was 48.2%. The viability, T/C (second compound 3.16 µM, first compound 0.949 µM) was 48.5%, the viability, T/C (second compound 3.16 µM, first compound 3 µM) was 59.9% and the viability, T/C (second compound 10 µM, first compound 0.00949 µM) was 61%. It also gave a viability, T/C (second compound 10 µM, first compound 0.03 µM) of 60.9%, a viability, T/C (second compound 10 µM, first compound 0.0949 µM) of 53.1% and a viability, T/C (second compound 10 µM, first compound 0.3 µM) of 51.5%. For the same compound, the viability, T/C (second compound 10 µM, first compound 0.949 µM) was 41.6% and the viability, T/C (second compound 10 µM, first compound 3 µM) was 46.5%.
Compound Nc1ncn(C2CC(O)C(CO)O2)c(=O)n1 (stereo not given) + NC1CC1c1ccc(-c2cccc(O)c2)cc1 has an IC50 (second compound 0.1 µM) of over 1 µM, an IC50 (second compound 0.316 µM) of over 1 µM and an IC50 (second compound 1 µM) of over 1 µM. The IC50 (second compound 3.16 µM) was over 1 µM, the IC50 (second compound 10 µM) was over 1 µM and the viability, T/C (second compound 0.1 µM, first compound 0.00316 µM) was 96.2%. It also gave a viability, T/C (second compound 0.1 µM, first compound 0.01 µM) of 77.9%, a viability, T/C (second compound 0.1 µM, first compound 0.0316 µM) of 84.7% and a viability, T/C (second compound 0.1 µM, first compound 0.1 µM) of 62.4%. The viability, T/C (second compound 0.1 µM, first compound 0.316 µM) was 66.7%, the viability, T/C (second compound 0.1 µM, first compound 1 µM) was 81% and the viability, T/C (second compound 0.316 µM, first compound 0.00316 µM) was 68%. It also gave a viability, T/C (second compound 0.316 µM, first compound 0.01 µM) of 73.2%, a viability, T/C (second compound 0.316 µM, first compound 0.0316 µM) of 75.2% and a viability, T/C (second compound 0.316 µM, first compound 0.1 µM) of 71.6%. It also gave a viability, T/C (second compound 0.316 µM, first compound 0.316 µM) of 70.5%, a viability, T/C (second compound 0.316 µM, first compound 1 µM) of 77.7% and a viability, T/C (second compound 1 µM, first compound 0.00316 µM) of 76.4%. It also gave a viability, T/C (second compound 1 µM, first compound 0.01 µM) of 73.5%, a viability, T/C (second compound 1 µM, first compound 0.0316 µM) of 81.8% and a viability, T/C (second compound 1 µM, first compound 0.1 µM) of 56.2%. It also gave a viability, T/C (second compound 1 µM, first compound 0.316 µM) of 69.5%, a viability, T/C (second compound 1 µM, first compound 1 µM) of 64.1% and a viability, T/C (second compound 3.16 µM, first compound 0.00316 µM) of 69.5%. It also gave a viability, T/C (second compound 3.16 µM, first compound 0.01 µM) of 69.7%, a viability, T/C (second compound 3.16 µM, first compound 0.0316 µM) of 69.8% and a viability, T/C (second compound 3.16 µM, first compound 0.1 µM) of 63.9%. It also gave a viability, T/C (second compound 3.16 µM, first compound 0.316 µM) of 52.7%, a viability, T/C (second compound 3.16 µM, first compound 1 µM) of 72.7% and a viability, T/C (second compound 10 µM, first compound 0.00316 µM) of 69.5%. The viability, T/C (second compound 10 µM, first compound 0.01 µM) was 70.6%, the viability, T/C (second compound 10 µM, first compound 0.0316 µM) was 61% and the viability, T/C (second compound 10 µM, first compound 0.1 µM) was 57.9%. It also gave a viability, T/C (second compound 10 µM, first compound 0.316 µM) of 57.7% and a viability, T/C (second compound 10 µM, first compound 1 µM) of 59%.
